The source of these data is US20090252751A1, “Immune adjuvant comprising ubiquinone” (priority 2007, published 2009).

What all share (assay type): in vivo
The subject of one test is mice. Kind of test: Production amount of antibody in mice by ELISA with CoQ2, CoQ4, CoQ6 or CoQ10 as immunoadjuvant (Test Example 3). Particulars: used as immunoadjuvant together with antigenic substance; serum sample on the 25th day; ELISA absorbance (FIG. 3). The protocol: The following test was carried out according to the procedure of Text example 1 by using ELISA to confirm the amount of antibody in mice produced upon the administration of coenzyme Q2 (n=2; CoQ2), coenzyme Q4 (n=4; CoQ4), coenzyme Q6 (n=6; CoQ6) or coenzyme Q10 (n=10; CoQ10) together with an antigenic substance. The case where only an antigenic substance had been administered was selected as a reference example in the test.
As a result, the average of the absorbance for the serum sample on the 25th day from the start of the test in each group was as shown in FIG. 3.

Test [1] deals with Balb/c mice. Kind of test: Production amount of antibody in mouse serum by ELISA after dermal administration of antigenic substance with immunoadjuvant (Test Example 1).
For test [2], the system named is Balb/c mice. As to the kind of experiment: Measurement of IgG1/IgG2 ratio in blood sample as index of Th2/Th1 balance (Test Example 2). The protocol:
The blood sample collected on the 25th day from the start of the test was provided, and the IgG1/IgG2 ratio was measured as an index of Th2/Th1 balance.
Further, a blood sample obtained by inoculating only the antigenic substance by intraperitoneal administration instead of the dermal administration at the same time as in the administration schedule in Test Example 1 was used as a control blood sample for comparison.
The IgG1/IgG2 ratio was measured with a Mouse Monoclonal Antibody Isotyping Reagents kit (SIGMA).
Specifically, a mouse serum was diluted with PBS by a factor of 1000 to give a solution. The solution (100 μL) was added to wells in a plate and was incubated at 37° C. for one hr. Next, each well was washed three times with PBS, and 100 μL of isotyping specific reagents (reagents containing IgA, IgG1, IgG2a, and IgG2b), which had been diluted by a factor of 1000, were added to the wells followed by incubation at room temperature for 30 min. Each well was washed three times with PBST. A peroxidase labelled […] (manufactured by SIGMA) (100 μL), which had been diluted with PBST by a factor of 5000, was added to the wells, and the wells were allowed to stand at room temperature for one hr. The wells were then washed three times with PBST. […] For each well, the absorbance was measured with Multiscan Ascent (manufactured by Thermo Labsystems, wave length 405 nm).

As to `COC1=C(OC)C(=O)C(C/C=C(\C)CCC=C(C)C)=C(C)C1=O` [coenzyme Q2], the “production amount of the antibody compared with the case where only the antigenic substance was administered” value with mice was “larger”.
Turning to `COC1=C(OC)C(=O)C(C/C=C(\C)CC/C=C(\C)CC/C=C(\C)CCC=C(C)C)=C(C)C1=O` [coenzyme Q4], the “production amount of the antibody compared with the case where only the antigenic substance was administered” value in the test on mice is “larger”.
In the case of `COC1=C(OC)C(=O)C(C/C=C(\C)CC/C=C(\C)CC/C=C(\C)CC/C=C(\C)CC/C=C(\C)CCC=C(C)C)=C(C)C1=O` [coenzyme Q6], the “production amount of the antibody compared with the case where only the antigenic substance was administered” value in the test on mice is reported as “larger”.
With `COC1=C(OC)C(=O)C(C/C=C(\C)CC/C=C(\C)CC/C=C(\C)CC/C=C(\C)CC/C=C(\C)CC/C=C(\C)CC/C=C(\C)CC/C=C(\C)CC/C=C(\C)CCC=C(C)C)=C(C)C1=O` [coenzyme Q10], the “average±standard error of the absorbance (amount of produced antibody, ELISA)” value in the test on Balb/c mice [1] (dermal administration (tape preparation), serum sample on the 25th day from the start of the test, serum diluted 1000-fold, 405 nm, n=4) was 0.670±0.033. Besides, the “IgG1/IgG2 ratio (given as average of the absorbance)” value in the test with Balb/c mice [2] (dermal administration of the antigenic substance together with adjuvant, blood sample on the 25th day) turned out to be 2.28. Moreover, in the test on mice, the “production amount of the antibody compared with the case where only the antigenic substance was administered” value is “larger”.
Consider cholera toxin [reference compound], for which the “average±standard error of the absorbance (amount of produced antibody, ELISA)” value in the test with Balb/c mice [1] (mouse, in vivo) is 0.551±0.202. The “IgG1/IgG2 ratio (given as average of the absorbance)” value in the test on Balb/c mice [2] (mouse, in vivo) is 1.46.
